Measured values from US20060201053A1, “Barrier preventing wood pest access to wooden structures” (priority 2000, published 2006).
Marks after values point to notes of the source that are not given here.

Key:
Type in all cases: physicochemical
[1] = Effect of carbon black binding carrier on release rate (Example 6); details: active chemical 5 wt. %, high density polyethylene (MA 778-000), 6 weeks after fabrication
Method: Release rates were measured at 6 weeks after fabrication wherein samples were wiped weekly to remove surface accumulation of released active chemical.

[2] = Thermal decomposition of the pesticide during processing
Method: To have a safety cushion for operating conditions, it is beneficial to have a processing temperature of approximately 150° C.
(§1) The polymers evaluated included low melt polyethylene, polyurethane, two epoxies, silicone rubber, and a low melt polyethylene high in waxes to reduce thermal decomposition of the chlorpyrifos.

[3] = Release rate versus lambda cyhalothrin concentration and polymer combination (Example 4)
Method: An experiment was conducted to determine the effect of lambda cyhalothrin (pyrethroid) concentration and insecticide/polymer combination on release rate of insecticide from the polymer.

[4] = Release rate of lambda cyhalothrin from multi-layer barrier film
Description: The release rate of bioactive chemicals from the bonding layer 126 to the other layers is greater than the release rate of bioactive chemicals from the barrier film 110 to the exterior of the barrier film 110.

[5] = Release rate of pesticides from controlled release devices, one inch squares of 1/8 inch sheets (Example 3)
Description: Controlled release devices were made and tested to obtain their release rates. All thermoplastic polymers were formulated with 10 percent pesticide, 3 or 7 percent carbon black to absorb liquid pesticide, and 83 to 87 percent by weight of polymer and injection molded into thin sheets about ⅛ inch thick. […] The devices made from the remaining pesticides and thermoplastic polymers contained 7 percent of carbon black.
The devices made from S-113 urethane (a thermoset polymer) were made from a polymer mix containing 60% S-113, 40% castor oil and […] of TIPA catalyst by weight. The polymer mix comprised 90% of the total weight of the device. The pesticide, deltamethrin, comprised the remaining 10% of the device. No carbon black was used in this device. The polymer/pesticide mixture was cast into a ⅛ inch thick sheet and heated at about 60° C. for about 40 to 60 minutes to cure the cast sheet.
One inch squares were then cut from the thin sheets that were injection molded or cast and the squares were tested for release rates.

[6] = Release rate of 10 wt. % pyrethroid impregnated polymers (Example 5)
[7] = Release rate of chlorpyrifos from polymer devices (Example 1); details: 50° C.
Method: Experiments were conducted to determine the release rate of chlorpyrifos. Loading rates for the insecticide were either 5 wt. % (weight percent) or 10 wt. % depending on the polymer. Release rates were determined for all devices at 50° C.
as §1
Release rates ranged from 10 μg/cm^2/day for the silicone rubber to 0.3 μg/cm^2/day for Epoxy B.

[8] = Release rate of pyrethrin from polymer systems (Example 2); details: Pyrethrin I content 10%, 40° C.
Method: Studies were also conducted with similar polymer systems as in Example 1 but with 80% pure pyrethrin.

[9] = Polyethylene MA 778-000, 10 percent pesticide
[10] = Polyurethane 2200, 10 percent pesticide
[11] = Polyurethane 3100, 10 percent pesticide

Q: Which results are given for `CC1(C)[C@H](C(=O)O[C@H](C#N)c2cccc(Oc3ccccc3)c2)[C@@H]1/C=C(\Cl)C(F)(F)F` (racemic) [Lambda cyhalothrin]?
A: Release Rate ([1]; carbon black 0 wt. %): 1.78 μg/cm^2/day; Release Rate ([1]; carbon black 10 wt. %): 0.81 μg/cm^2/day; Release Rate ([1]; carbon black 20 wt. %): 0.61 μg/cm^2/day; temperature above which thermal decomposition and volatilization occurs ([2]; in the manufacturing process): > 160 °C; Pyrethroid Release Rate ([3]; Ethylvinyl Acetate (EVA), pyrethroid 1 wt. %): 0.3 mg/cm^2/da; Pyrethroid Release Rate ([3]; Ethylvinyl Acetate (EVA), pyrethroid 5 wt. %): 2.2 mg/cm^2/da; Pyrethroid Release Rate ([3]; Ethylvinyl Acetate (EVA), pyrethroid 10 wt. %): 2.5 mg/cm^2/da; Pyrethroid Release Rate ([3]; Polyurethane, pyrethroid 1 wt. %): 0.9 mg/cm^2/da; Pyrethroid Release Rate ([3]; Polyurethane, pyrethroid 5 wt. %): 4.4 mg/cm^2/da; Pyrethroid Release Rate ([3]; Polyurethane, pyrethroid 10 wt. %): 8.3 mg/cm^2/da; Pyrethroid Release Rate ([3]; Polyurethane/EVA (50/50), pyrethroid 1 wt. %): 2.6 mg/cm^2/da; Pyrethroid Release Rate ([3]; Polyurethane/EVA (50/50), pyrethroid 5 wt. %): 7.2 mg/cm^2/da; Pyrethroid Release Rate ([3]; Polyurethane/EVA (50/50), pyrethroid 10 wt. %): 9.1 mg/cm^2/da; release rate from barrier film ([4]; preferred eight-layer embodiment): less than 0.002 μg per square centimeter of film per day; release rate from barrier film ([4]; six-layer embodiment): less than 0.002 μg per square centimeter of film per day; Release Rate ([5]; EVA 763, 10 percent pesticide): 27.3 μg/cm^2/day; Release Rate [5, 9]: 4.6 μg/cm^2/day; Release Rate [5, 10]: 0.7 μg/cm^2/day; Release Rate [5, 11]: 0.4 μg/cm^2/day

Q: For `Cc1c(F)c(F)c(COC(=O)[C@@H]2[C@H](/C=C(\Cl)C(F)(F)F)C2(C)C)c(F)c1F` (racemic) [Tefluthrin], which “Release Rate” value ([1]; carbon black 0 wt. %) is on record?
A: 3.13 μg/cm^2/day

Q: And the “Release Rate” value ([1]; carbon black 10 wt. %)?
A: 0.71 μg/cm^2/day

Q: What about the “Release Rate” value ([6]; Ethylvinyl acetate) of the same compound?
A: 4.3 mg/cm^2/da

Q: And the “Release Rate” value ([6]; Polyethylene)?
A: 2.2 mg/cm^2/da

Q: And the “Release Rate” value ([5]; EVA 763, 10 percent pesticide)?
A: 40.4 μg/cm^2/day

Q: And the “Release Rate” value [5, 9]?
A: 27.0 μg/cm^2/day

Q: And the “Release Rate” value [5, 10]?
A: 25.0 μg/cm^2/day

Q: And the “Release Rate” value [5, 11]?
A: 6.4 μg/cm^2/day

Q: What does the source list for `CCOP(=S)(OCC)Oc1nc(Cl)c(Cl)cc1Cl` [Chlorpyrifos, chlorpyrifos]?
A: temperature above which excessive thermal decomposition occurred ([2]; polymer processing): > 240 °C; Release Rate ([7]; Epoxy A, chlorpyrifos content 5%): <0.1 μg/cm^2/da; Release Rate ([7]; Epoxy B, chlorpyrifos content 10%): 0.3 ± 0.1 μg/cm^2/da; Release Rate ([7]; Epoxy B, chlorpyrifos content 10%, listed as chlorpyrifos): 0.3 μg/cm^2/da; Release Rate ([7]; PE + Wax, chlorpyrifos content 10%): 1.9 ± 0.3 μg/cm^2/da; Release Rate ([7]; Polyurethane, chlorpyrifos content 5%, material exhibited excessive cracking): 2.1 ± 1.4^b μg/cm^2/da; Release Rate ([7]; Silicone, chlorpyrifos content 5%): 10.3 ± 3.5 μg/cm^2/da; Release Rate ([7]; Silicone, chlorpyrifos content 5%, listed as chlorpyrifos): 10 μg/cm^2/da; Release Rate ([7]; Urethane, chlorpyrifos content 10%): 1.0 ± 0.3 μg/cm^2/da

Q: What does the source list for `CC1(C)C(C=C(Cl)Cl)C1C(=O)OC(C#N)c1cccc(Oc2ccccc2)c1` (stereo not shown) [Cypermethrin]?
A: Release Rate ([5]; EVA 763, 10 percent pesticide): 27.3 μg/cm^2/day; Release Rate [5, 9]: 4.6 μg/cm^2/day; Release Rate [5, 10]: 0.7 μg/cm^2/day; Release Rate [5, 11]: 0.4 μg/cm^2/day

Q: With `CC1(C)[C@H](C(=O)O[C@H](C#N)c2cccc(Oc3ccccc3)c2)[C@@H]1C=C(Br)Br` [Deltamethrin] as the compound, how does the “Release Rate” value ([5]; Alipmtic PS-49-100, 10 percent pesticide) read?
A: 7.2 μg/cm^2/day

Q: What about the “Release Rate” value ([5]; Aromatic 80A, 10 percent pesticide) of the same compound?
A: 16.8 μg/cm^2/day

Q: And the “Release Rate” value ([5]; Pellethane 2102-55D, 10 percent pesticide)?
A: 8.0 μg/cm^2/day

Q: And the “Release Rate” value ([5]; Pellethane 2102-80A, 10 percent pesticide)?
A: 8.8 μg/cm^2/day

Q: And the “Release Rate” value ([5]; S-113 urethane, 10% pesticide, no carbon black)?
A: 25.2 μg/cm^2/day

Q: Which “Release Rate” value ([6]; Ethylvinyl acetate) does the source give for `CC1(C)C(C=C(Cl)Cl)C1C(=O)OCc1cccc(Oc2ccccc2)c1` (stereo not shown) [Permethrin] here?
A: 3.9 mg/cm^2/da

Q: And the “Release Rate” value ([6]; Polyethylene)?
A: 1.4 mg/cm^2/da

Q: What about the “Release Rate” value ([5]; EVA 763, 10 percent pesticide) of the same compound?
A: 28.5 μg/cm^2/day

Q: And the “Release Rate” value [5, 9]?
A: 4.0 μg/cm^2/day

Q: And the “Release Rate” value [5, 10]?
A: 1.3 μg/cm^2/day

Q: And the “Release Rate” value [5, 11]?
A: 1.4 μg/cm^2/day

Q: For `C=C/C=C\CC1=C(C)[C@@H](OC(=O)[C@@H]2[C@@H](C=C(C)C)C2(C)C)CC1=O` [Pyrethrin I], which “Release Rate” value ([8]; Epoxy A) is on record?
A: 0.5 ± 0.2 μg/cm^2/day

Q: What about the “Release Rate” value ([8]; Epoxy B) of the same compound?
A: 0.2 ± 0.1 μg/cm^2/day

Q: What about the “Release Rate” value ([8]; Silicone) of the same compound?
A: 21.2 ± 5.4 μg/cm^2/day

Q: What about the “Release Rate” value ([8]; Urethane) of the same compound?
A: 15.7 ± 7.1 μg/cm^2/day
